Values quoted from earlier work in US12194143B2, “Mycophenolate oral suspension” (LIQMEDS WORLDWIDE LIMITED, priority 2018, dated 2025).
Structures can show the parent of a compound that is named as a salt. Where two headings read alike, the source gives them in different places.

Structure (SMILES): C[C@@H](NCCCc1cccc(C(F)(F)F)c1)c1cccc2ccccc12 [Cinacalcet hydrochloride, N-[1-(R)-(−)-(1-naphthyl)ethyl]-3-[3-(trifluoromethyl)phenyl]-1-aminopropane]
- solubility (in 95% ethanol): soluble
- solubility (in methanol): soluble
- solubility (in water): slightly soluble
